For data set [1], the system named is guinea pigs. The data set can be described thus: Study of arrhythmia-inducing action in guinea pigs (without ouabain). The note with it: no ouabain.
The subject of data set [2] is ouabain-induced arrhythmia model. The data set can be described thus: Ouabain-induced arrhythmia model in guinea pigs. The class given is in vivo, guinea pigs (Hartley strain). The note with it: dose 3 mg/kg i.v. immediately before ouabain infusion 3 μg/0.1 ml/min. The source says:
After guinea pigs (Hartley strain, age 6 weeks) were anesthetized with urethane, induction electrodes were attached to the hind limbs and fore limbs, and standard 2-lead electrocardiograms were monitored with an animal electrocardiogram analysis system (ECG-01, Japan Energy). After confirming that the waveforms of the electrocardiogram and heart rate were within the normal range, an incision was made in the epidermis of the neck followed by inserting a breathing tube into the trachea and cannulating a polyethylene tube into the left external jugular vein and left common carotid artery.
Immediately after administering a compound of the present invention dissolved in a physiological saline solution into the right external jugular vein, ouabain was continuously infused at 3 μg/0.1 ml/min through the cannulated polyethylene tube into the left external jugular vein using a syringe pump (Atom Syringe Pump 1235 (trade name), Atom Medical Corporation).
In addition, the polyethylene tube cannulated in the left common carotid artery was connected to a pressure transducer (P23XL, Gould Electronics), and fed to a pressure processor signal conditioner (TA-11, Gould Electronics) to record blood pressure and heart rate on a thermal plate recorder.
The results were assessed by comparing the dose (μg/kg) of ouabain administered until the appearance of arrhythmia and occurrence of cardiac arrest (arrhythmia is not induced even if a large dose of ouabain is administered if antiarrhythmic effects are high). Furthermore, a solvent dose group (administered only physiological saline in an amount equal to that of the test drug groups), and a positive control group administered a typical antiarrhythmic disopyramide phosphate (physiological saline solution), were also provided.

In data set [3] the test system is model of myocardial ischemia reperfusion injury. Put plainly: Model of myocardial ischemia-reperfusion injury in dogs. The class given is in vivo. As to conditions: 3 mg/kg into the femoral vein 10 minutes before 20 minutes coronary occlusion, then reperfusion. The method, then: In order to confirm the efficacy of compounds of the present invention on myocardial infarction and arrhythmia caused by myocardial infarction, a pharmacological study was conducted using a model of myocardial ischemia reperfusion injury in dogs for the compounds used in Example 1.
Dogs having body weights of approximately 10 kg were anesthetized with pentobarbital (trade name) (30 mg/ml/kg) followed by shaving the surgical site after starting artificial respiration. The femoral vein and femoral artery were separated followed by cannulation. The femoral vein was used as the administration route for the test substances, while the femoral artery was used to measure blood pressure.
Next, after opening the left chest, making an incision in the pericardium and exposing the left ventricle, the left coronary artery was separated. A silk suture was passed through the coronary artery to occlude, followed by the attachment of an electromagnetic flow meter probe for measuring blood flow.
In addition, a pair of ultrasound crystal probes was fixed in position to measure changes in ventricular wall length as a indicator of myocardial contractile force, and indwelling needle was installed for measuring left intraventricular pressure. Compounds of the present invention were administered into the femoral vein at 3 mg/kg (15% physiological saline solution) followed 10 minutes later by occluding the coronary artery for 20 minutes, and subsequently reperfusing the coronary artery. Myocardial contraction following ischemia-reperfusion was compared for each group based on a value of 100 for myocardial contraction prior to ischemic reperfusion. In addition, comparisons were also made with a solvent control group administered only physiological saline.

The subject of data set [4] is model of myocardial ischemia-reperfusion injury. The data set can be described thus: Model of myocardial ischemia-reperfusion injury in rats. The class given is in vivo. The note with it: 3 mg/kg i.v. 5 minutes before 5 minutes coronary ligation, 8 rats per group; for Incidence of Ventricular Fibrillation (%) / Incidence of Ventricular Tachycardia (%): monitored 5 minutes after reperfusion; for Mortality Rate (%): then reperfusion.

The test system of data set [5] is middle cerebral artery occlusion and reperfusion model. The data set can be described thus: Cerebral infarction model: middle cerebral artery occlusion and reperfusion (infarct area, neurological symptoms, motor function). The class given is in vivo, rats (Crj: Wistar strain). The note with it: rats, average of 10 animals; for Improvement of neurological symptoms* (total score) / Improvement of motor function (time stayed on rotor rod: seconds): single i.v. dose 3 mg/kg; for Improvement of neurological symptoms* (total score): 24 hours after occlusion, total score per Table 4, smaller = greater effect; for Improvement of motor function (time stayed on rotor rod: seconds): rotor rod 14 rotations per minute, maximum 1 minute; for Cerebral infarction reduction rate (%): single intravenous dose 3 mg/kg immediately before reperfusion, vs physiological saline group, bigger = greater effect. Further details: Improvement of neurological symptoms* (total score): scale not given here. The method, then: In this example, a cerebral infarction model was prepared using rats in which reperfusion injury was induced by ischemia and then reperfusion of the middle cerebral artery using the obturator method. The efficacy of compounds of the present invention following single-dose intravenous administration at dose of 3 mg/kg was evaluated in terms of infarct area, neurological symptoms and motor function.
In addition, Edaravone (trade name, Mitsubishi Pharma Corporation) was used as a reference compound. The compounds of the present invention were stored in a refrigerator under protection from light, while Edaravone (trade name) was stored at room temperature under protection from light.
Compounds of present invention: 2 mL of physiological saline was added directly to tube containing 3 mg aliquots of a compound of the present invention to dissolve and prepare solutions having a concentration of 3 mg/2 mL. These samples were prepared at the time of use.
Edaravone: Since Edaravone is an injectable solution having a concentration of 30 mg/20 mL, the required amounts were divided up and used.
Rats: Crj: Wistar strain, males, age 7 weeks (Charles River Laboratories Japan, Inc.)
The test compounds were administered in a single dose into the tail vein using a 1 mL syringe and 27 G injection needle immediately before the reperfusion.
The rats were anesthetized by intraperitoneal administration of sodium pentobarbital at dose of 40 mg/kg (Nembutal (trade name), Dainippon Pharmaceutical Co., Ltd.), and a middle cerebral artery occlusion and reperfusion model was prepared in accordance with the method of Koizumi et al. (Non-Patent Document 2). Namely, the animals were warmed to 37° C. and held in the dorsal position while breathing spontaneously. A midline cervical incision was made, and then the right external carotid artery and right internal carotid artery were separated without damaging the vagus nerve. The right common carotid artery and right external carotid artery were ligated, and a suture was attached to the origin of the internal carotid artery in preparation for ligation and maintenance of occlusion following insertion of an obturator into the internal carotid artery. Moreover, a small incision was made in the right common carotid artery, an obturator provided with an approximately 17 mm silicon-coated suture was inserted into the internal carotid artery, and the internal carotid artery was ligated. Two hours after ligation, the obturator was removed under unanesthesia to reperfuse. Furthermore, flexion of the contralateral forelimb was confirmed 30 minutes after occlusion of the middle cerebral artery.
The following neurological symptoms were evaluated 24 hours after occlusion of the middle cerebral artery according to the evaluation method of Petullo et al. (Non-Patent Document 3). Neurological symptoms consisted of flexion of the forelimbs, torso twisting, resistance when pushing on the back of the right or left shoulder (Lateral push), circling, return of the hindlimb to the floor when lifted from the floor (Hindlimb placement), behavior when the head is faced downward on an angle (Inverted angle board) and a locomotor activity test.
Flexion of the forelimbs: flexion of the forelimbs was observed when the animals were lifted up by the tail.
Torso twisting: Torso twisting was observed when the animals were lifted up by the tail.
Lateral push: Resistance was observed when pushing on the back of the right or left shoulder.
Hindlimb placement: The animals were observed as to whether or not the hindlimb immediately returns to the floor after being lifted from the floor when placed on a horizontal floor.
locomotor activity: locomotor activity was observed when the animals were placed in a polycarbonate cage.
The aforementioned tests were scored based on the criteria described in the following documents, followed by calculation of total scores (see Table 4 “Neurological Symptom Evaluation Criteria and Scores”). […]

Setting [6] is: dose 3.9 mg/kg, up to 1 hour after administration.
Where [7] appears, read: dose 3 mg/kg, up to 1 hour after administration.
[8] abbreviates: dose 10 mg/kg, up to 1 hour after administration.

Structures are written as SMILES.

With `CC(C)N(CCC(C(N)=O)(c1ccccc1)c1ccccn1)C(C)C` (centres unmarked) [Disopyramide phosphate, disopyramide phosphate, reference compound], in data set [1] (setting [6]), the “Occurrence of Arrhythmia” value is given as “No” and the “Occurrence of cardiac arrest” value was “No”. Moreover, the “Occurrence of cardiac arrest” value in data set [1] (dose 12.9 mg/kg (10 mg/kg as disopyramide)) is “Yes”. Besides, the “Occurrence of cardiac arrest” value in data set [1] (dose 12.9 mg/kg (10 mg/kg as disopyramide), listed as disopyramide phosphate) is given as “cardiac arrest occurred immediately after administration”. Besides, in data set [2], the “Ouabain (μg/kg) administered until Cardiac arrest” value was found to be 247 µg/kg and the “Ouabain (μg/kg) administered until appearance of Arrhythmia” value (shortened to “Ouabain … of Arrhythmia”) stood at 175 µg/kg.
With `C[N+](C)(C)CCOc1ccc(C(=O)[O-])cc1` [Compound 3, 4-(2-trimethylammonio-ethoxy)-benzoate], the “Myocardial Contraction (%) (Based on a value of 100% for prior to ischemia-reperfusion)” value in data set [3] is given as 81%. In data set [1] (setting [7]), the “Occurrence of Arrhythmia” value is listed as “No” and the “Occurrence of cardiac arrest” value is “No”. In addition, in data set [1] (setting [8]), the “Occurrence of Arrhythmia” value was “No” and the “Occurrence of cardiac arrest” value is “No”. In addition, in data set [4], the “Incidence of Ventricular Fibrillation (%)” value worked out at 12.5%, the “Incidence of Ventricular Tachycardia (%)” value came to 62.5% and the “Mortality Rate (%)” value is given as 0%. In addition, in data set [2], the “Ouabain (μg/kg) administered until Cardiac arrest” value was determined as 235 µg/kg and the “Ouabain … of Arrhythmia” value was 169 µg/kg. Also, in data set [5], the “Improvement of neurological symptoms* (total score)” value worked out at 6.20, the “Improvement of motor function (time stayed on rotor rod: seconds)” value came out at 50.1 s and the “Cerebral infarction reduction rate (%)” value came out at 48.7%.
In the case of `C[N+](C)(C)CCOc1cc(C(=O)O)ccc1O.[Cl-]` [Compound 27, [2-(5-carboxy-2-hydroxy-phenoxy)-ethyl]-trimethylammonium Chloride], the “Myocardial Contraction (%) (Based on a value of 100% for prior to ischemia-reperfusion)” value in data set [3] turned out to be 85%. Further, in data set [1] (setting [7]), the “Occurrence of Arrhythmia” value is given as “No” and the “Occurrence of cardiac arrest” value is given as “No”. Also, in data set [1] (setting [8]), the “Occurrence of Arrhythmia” value was “No” and the “Occurrence of cardiac arrest” value is on record as “No”. Besides, in data set [4], the “Incidence of Ventricular Fibrillation (%)” value is listed as 0%, the “Incidence of Ventricular Tachycardia (%)” value came out at 50.0% and the “Mortality Rate (%)” value was 0%. Also, in data set [2], the “Ouabain (μg/kg) administered until Cardiac arrest” value worked out at 258 µg/kg and the “Ouabain … of Arrhythmia” value came out at 180 µg/kg. Further, in data set [5], the “Improvement of neurological symptoms* (total score)” value came out at 6.75, the “Improvement of motor function (time stayed on rotor rod: seconds)” value amounted to 47.5 s and the “Cerebral infarction reduction rate (%)” value came to 53.7%.

The record behind these values is patent publication US7687546B2, “Quaternary ammonium compound, process for producing the same, therapeutic agent for cerebrovascular disorder, and therapeutic agent for heart disease” (Activus Pharma Co., Ltd., priority 2004, dated 2010).
